Laboratory results taken from patent US4250255A, “Assay method for isoenzyme activity” (Eastman Kodak Company, priority 1977, dated 1981).

Assays:
LD5 [1] = biological target: LD5 (Sus scrofa, UniProt P00339); assay: LDH activity assay with amphiphile, LDH isoenzymes; format: biochemical, porcine; design: LD5 from two different species, i.e., rabbit muscle and hog muscle; from tissue; host or cells: hog muscle; details: pH 7.4, read-out: activity of LD5 in CTAB, % of the buffer value
Method: (§1) 3. Beef heart LDH (Sigma Chemical Co., Type III), rabbit muscle LDH (Sigma Chemical Co., Type V) and porcine LDH, LD1, LD2, LD3, LD4 and LD5 in the form of ammonium sulfate suspensions were used for these examples.
(§2) The assay for LDH activity in both the absence and presence of surfactant was conducted as follows. […] The resulting solution contains approximately 5 units/ml. […] To the equilibrated solution […]. of the enzyme solution was added, and the cuvette was rapidly shaken while covering the top of the cuvette with a small piece of Parafilm® and placed back into the spectrophotometer.
(§3) Amphiphile solutions were prepared by weighing out a given amount of amphiphile, e.g., 100 mg, and preparing a stock solution in 30 mM sodium phosphate buffer in 100 ml. volumetric flask. Solutions of lower amphiphile concentration were prepared by making the appropriate dilutions from the stock solution.

human LD5 [2] = assay: LDH assay with human enzyme-containing serum; format: biochemical; details: pH 7.4; FIG. 15
Method: as §2
(§4) Pooled human serum, kept frozen until ready for use, was raised to pH 11.5 until all LDH activity was destroyed. The pH was then adjusted to 7.4 and the serum was again assayed for LDH activity to ensure that no LDH had been reactivated. A specific human LDH isoenzyme (obtained from liver homogenate or red blood cell) was then added to the pool to give an enzyme concentration of ~100 U/l. The spiked serum samples were refrigerated between uses and respiked when necessary. Fresh serum was prepared weekly.
(§5) 8. The assay method used is the same as described above for Examples 1-12, except that the test samples consisted of 25-30 μl of serum instead of 100 μl of aqueous enzyme solution.

human LD4 = biological target: T1, human LD4 (Homo sapiens, UniProt P00338+P07195); assay: LDH assay with human enzyme-containing serum; format: biochemical
T1 construct: A specific human LDH isoenzyme (obtained from liver homogenate or red blood cell); from tissue; host or cells: human liver homogenate or red blood cell
Method: as §2, §4, §5

human LD2 = biological target: T2, human LD2 (Homo sapiens, UniProt P00338+P07195); assay: LDH assay with human enzyme-containing serum; format: biochemical; details: 2.5 mM CTAB; pH 7.8; 14% protein
T2 construct: A specific human LDH isoenzyme (obtained from liver homogenate or red blood cell); from tissue; host or cells: human liver homogenate or red blood cell
Method: as §2, §4, §5

human LD1 = biological target: T3, human LD1 (Homo sapiens, UniProt P07195); assay: LDH assay with human enzyme-containing serum; format: biochemical; details: 2.5 mM CTAB; pH 7.8; 14% protein
T3 construct: A specific human LDH isoenzyme (obtained from liver homogenate or red blood cell); from tissue; host or cells: human liver homogenate or red blood cell
Method: as §2, §4, §5

human LD5 [3] = biological target: T4, human LD5 (Homo sapiens, UniProt P00338); assay: LDH assay with human enzyme-containing serum; format: biochemical
T4 construct: A specific human LDH isoenzyme (obtained from liver homogenate or red blood cell); from tissue; host or cells: human liver homogenate or red blood cell
Method: as §2, §4, §5

human LD1, LD2 and LD3 = assay: LDH assay with human serum sample containing LD1, LD2 and LD3; format: biochemical; details: CTAB 0.002-0.004 M; 25 μl serum; FIG. 13
Method: as §2, §4, §5

mMDH = biological target: T5, mMDH (Sus scrofa, UniProt P00346); assay: Assay for MDH (oxalacetic acid + NADH, 340 nm); format: biochemical, porcine
T5 construct: Porcine cMDH and mMDH were used as ammonium sulfate suspensions
T5 sequence (P00346 25-338): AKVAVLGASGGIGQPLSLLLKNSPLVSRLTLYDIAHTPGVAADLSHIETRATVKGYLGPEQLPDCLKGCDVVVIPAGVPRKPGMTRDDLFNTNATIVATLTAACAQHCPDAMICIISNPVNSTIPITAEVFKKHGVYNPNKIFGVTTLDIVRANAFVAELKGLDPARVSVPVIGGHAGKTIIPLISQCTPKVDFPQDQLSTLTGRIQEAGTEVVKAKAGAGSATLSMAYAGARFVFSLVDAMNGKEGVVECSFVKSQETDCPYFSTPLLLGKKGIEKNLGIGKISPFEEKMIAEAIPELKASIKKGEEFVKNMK
Method: (§6) 1. Porcine cMDH and mMDH were used as ammonium sulfate suspensions. Typically, 5 μl of the enzyme stock solutions were diluted to 10 ml with 30 mM phosphate buffer, pH 7.4, prior to use. The resulting enzyme solutions were stored in ice water; 100 μl aliquots were withdrawn for assay except where another amount is specified.
(§7) The assay is based on conversion of oxalacetic acid to malate in the presence of NADH and MDH. The assay was made [formula] in 30 mM phosphate buffer, at ambient temperature, with and without appropriate surfactant concentrations, and contained 0.17 mM OAA and 0.13 mM NADH. The reaction was followed by monitoring the decrease in absorbance at 340 nm using either a Beckman 25 or Cary 118 spectrophotometer. The OAA solutions were stored over ice to prevent hydrolysis to pyruvic acid.

cMDH = biological target: T6, cMDH (Sus scrofa, UniProt P11708); assay: Assay for MDH (oxalacetic acid + NADH, 340 nm); format: biochemical, porcine
T6 construct: Porcine cMDH and mMDH were used as ammonium sulfate suspensions
Method: as §6, §7

LD1 and LD5 = assay: Screening of amphiphiles for ability to discriminate between LD1 and LD5
Method: A series of solutions was prepared covering a range of concentrations for each amphiphile to be tested. The activities of both LD1 and LD5 were determined in the presence of the various concentrations of each amphiphile and compared with enzyme activities in buffer (relative activity).
Enzyme activity in the presence and absence of amphiphile was measured by the following procedure: Stock solutions of NADH (4 mM) and pyruvate (40 mM) were prepared daily in 30 mM sodium phosphate buffer, pH 7.4. Enzyme solutions were prepared daily by withdrawing 5 μl of the stock enzyme solutions with a Hamilton syringe and diluting to 5 ml with 30 mM sodium phosphate buffer. (The resulting solution contains approximately 5 U of enzyme/ml.) The enzyme assay was run by pipetting 2.7 ml of buffer or buffer surfactant solution into a 10 mm path length quartz cuvette, and 100 μl each of NADH and pyruvate stock solutions were added. […] Enzyme solution was added with good mixing; the absorbance decrease at 340 nm was measured as a function of time. The rate of the reaction was determined by measuring the slope of the initial absorbance decrease, i.e., within the first 50 seconds of the reaction.

LD5 [4] = assay: LDH activity assay with amphiphile, LDH isoenzymes; format: biochemical, porcine; details: even at 10 mM; LD5 from rabbit and hog show almost identical profiles; FIG. 5
Method: as §1, §2, §3

LD1 [5] = assay: LDH activity assay with amphiphile, LDH isoenzymes; format: biochemical, porcine; details: about 10 mM CTAB; FIG. 5
Method: as §1, §2, §3

[6] = test system: isoenzymes of creatinine phosphokinase (CPK); assay: Conventional coupled CPK assay (hexokinase, glucose-6-phosphate dehydrogenase); format: biochemical; details: conventional assay with coupled reactions, hexokinase and glucose-6-phosphate dehydrogenase
Excerpt: Of course, the particular amphiphile used and the concentration at which it is used will depend upon the particular isoenzyme being assayed. Not every amphiphile will have a discriminatory effect on the activity of isoenzymes in each isoenzyme system.

LD1 [7] = biological target: LD1 (Sus scrofa, UniProt P00336); assay: Effect of cationic amphiphiles on the activity of LDH isoenzymes (Table 1); format: biochemical; details: 30 mM sodium phosphate buffer pH 7.4, 25° C.; read-out: Amphiphile conc. Req'd for 50% Inactivation of Specified Isoenzyme (LD1)
Method: as §2, §3
A number of cationic amphiphiles were investigated for specific inactivation of LD1 in the presence of LD5 and these compounds are listed in Table 1.

[8] = 2.5 mM CTAB, pH 7.8, 14% protein
[9] = rate measurements after 2 minutes, FIG. 18

CCCCCCCCCCCCCCCC[N+](C)(C)C.[Br-] [CTAB, hexadecyltrimethylammonium bromide]
activity at 275 µM (LD5 [1]): 90 to 95% | discrimination between human LD5 and LD4 (human LD5 [2]): inadequate discrimination | human LD4 activity (human LD4; [8]): fully active | human LD4 activity (human LD4; 3 mM CTAB in 14% protein, pH 7.75-7.85, 30 μl serum): completely inactivated | human LD2 activity (human LD2): completely inactivated | human LD1 activity (human LD1): completely inactivated | human LD5 activity (human LD5 [3]; [8]): fully active | retained activity of human LD5 (human LD5 [3]; CTAB 0.002-0.004 M, 25 μl serum, FIG. 13): at least 60% | activity at 3000 µM (human LD5 [3]; read-out: human LD5 activity): > 100% | activity of human serum sample containing LD1, LD2 and LD3 (human LD1, LD2 and LD3): completely inactivated | remaining activity at 300 µM (mMDH; pH 7.4, 0.3 mM CTAB, initial reaction rates, FIG. 16, read-out: mMDH activity relative to a buffer control): 100% | effect on mMDH with increased exposure time (mMDH; [9]): no effect | cMDH activity (cMDH; 0.3 mM CTAB, initial reaction rates, FIG. 16): essentially completely inactivated | cMDH inactivation with increased exposure time (cMDH; [9]): more effectively inactivates cMDH | discrimination of LDH isoenzymes (LD1 and LD5): excellent discriminators | control LD5 activity lost in CTAB solutions (LD5 [4]): No more than 30% | LD1 susceptibility to inactivation at high surfactant concentrations (LD1 [5]): less susceptible to inactivation | discriminatory effect on the activities of the isoenzymes of CPK [6]: do not appear to have any discriminatory effect | IC50 (LD1 [7]): 900 µM
